System: monoclonal antibodies to morphine (morp Ab)
Test: Crosstalk inhibitor test: colloidal gold ligand analogue conjugate binding at the morp Ab zone of a nylon membrane (color density DE*)
Conditions: 5 μl (1.1 μmol) inhibitor, Table 3 #6 vs #1

O=C(O)CCCCCNC(=O)C1CCC(CN2C(=O)CC(SCCC(=O)O)C2=O)CC1 (stereo not shown) [CCM-MPA]
decrease of the morphine response: about 30%
